Measurements as given in doi:10.1101/2023.10.02.560523v1, “Quantitative target engagement of RIPK1 in human whole blood via the cellular thermal shift assay for potential pre-clinical and clinical applications” (biorxiv, 2023).

Biological target: T1, RIPK1 (receptor interacting serine/threonine-protein kinase 1) (Homo sapiens, UniProt Q13546)
T1 construct: endogenous untagged full-length protein in unprocessed human whole blood of healthy donors
T1 sequence (Q13546 1-671): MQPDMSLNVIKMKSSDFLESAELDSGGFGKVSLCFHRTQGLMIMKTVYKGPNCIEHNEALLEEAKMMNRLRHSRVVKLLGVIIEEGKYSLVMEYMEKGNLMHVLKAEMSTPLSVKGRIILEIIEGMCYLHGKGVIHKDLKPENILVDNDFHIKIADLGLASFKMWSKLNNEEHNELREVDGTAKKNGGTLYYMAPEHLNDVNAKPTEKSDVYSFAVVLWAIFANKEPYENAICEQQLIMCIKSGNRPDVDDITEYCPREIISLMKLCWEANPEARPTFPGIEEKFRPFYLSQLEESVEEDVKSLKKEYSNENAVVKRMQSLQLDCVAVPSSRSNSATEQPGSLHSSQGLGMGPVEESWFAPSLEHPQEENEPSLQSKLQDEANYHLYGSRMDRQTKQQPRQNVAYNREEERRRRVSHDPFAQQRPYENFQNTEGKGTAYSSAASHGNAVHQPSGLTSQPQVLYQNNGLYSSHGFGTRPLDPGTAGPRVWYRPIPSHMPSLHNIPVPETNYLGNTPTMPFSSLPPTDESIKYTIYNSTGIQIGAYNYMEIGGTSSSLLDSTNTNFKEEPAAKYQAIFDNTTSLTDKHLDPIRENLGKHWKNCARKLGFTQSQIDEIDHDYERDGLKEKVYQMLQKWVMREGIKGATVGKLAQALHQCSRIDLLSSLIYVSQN
Assay: MSD TEAR1 occupancy immunoassay, human whole blood
Type: cell-based
Details: 1 h at 37 °C with compound, no heating; N=1 donor; unreliable
Source text: MSD TEAR1 occupancy immunoassay, human whole blood on RIPK1 (receptor interacting serine/threonine-protein kinase 1)

EC50: 0.34 µM
Structure (SMILES): COc1ccc(-n2c(SCC#N)nc3sc4c(c3c2=O)CCCC4)cc1 [necrostatin 5]
